Measurements: US20230372289A1, “ANDROGRAPHOLIDE DERIVATIVE FOR USE IN THE TREATMENT OF INFLAMMATORY DISEASES ASSOCIATED WITH A CYTOKINE STORM” (CONSEJO SUPERIOR DE INVESTIGACIONES CIENTÍFICAS (CSIC), priority 2020, published 2023)
Values after ≈ are worked out from the molar mass of the structure shown. “Also recorded” adds a separate entry of the source.

What was measured:
[1] = Solubility of the product in PBS; assay type: physicochemical; details: aqueous buffer
New Zealand rabbits [2] = test: Single intravenous dose toxicity (phase I, OECD 425); assay type: in vivo; details: AG-5 in PBS (3 mg/ml)
Description: (§1) As part of the preclinical evaluation of toxicity, the purpose of this study was to define the MRD of AG-5, formulated as a solution in PBS (3 mg/ml), in a non-rodent mammalian species, that is, rabbit, under GLP and to provide data of toxicological interest.
(§2) To this end, a two-phase study was designed: i) in phase I, the product was administered intravenously in a single dose and following OECD guidelines 425, to a total of 4 New Zealand rabbits (2 males and 2 females) of about 2.5 kg and 12-13 weeks old, and the maximum tolerated dose (MTD) range was provisionally determined; ii) in phase II, the animals (a total of 4 New Zealand rabbits of about 2.5 kg and 12-13 weeks old) were given a daily intravenous administration for 7 days and the MRD that will serve as a reference (highest dose to be used) was confirmed.
(§3) The initial dose to be used in phase I was selected based on the data obtained by the laboratory after the administration of AG-5 in rats at a repeated dose of up to 30 mg/kg, for 7 days. In this study, the dose of 30 mg/kg was established as the MRD to be used in subsequent general toxicity studies. […] The dose to be tested in phase II was determined based on the results obtained in phase I, selecting a dose from the dose interval lower than that at which serious toxic effects would have been observed, with a maximum of 15 mg/kg/day as MFD, in application of the ICH M3(R2) guideline. The study considered the complete assessment of the symptoms, that is, intensity, time of onset and reversibility, the study of analytical (hematological and biochemical) parameters and the determination of the weight of toxicity target organs, to be fundamental.

IL-6 = IL-6 gene expression by qPCR in wild type larvae infected with SVCV, bath treatment; assay type: in vivo, Danio rerio; details: 10 μM bath for 24 h, then SVCV injection, qPCR at 24 h, vs untreated control groups
Description: (§4) Anti-inflammatory activity studies of the compounds were carried out in wild type fish, determining the expression levels of the pro-inflammatory cytokines IL-1β and IL-6. Transgenic larvae with labeled fluorescent neutrophils (Tg(Mpx:GFP)i114) or fluorescent myeloid cells (Tg(LYZ:Red)) were also used to assess how different treatments affect the inflammatory response of these cells. The inflammatory stimulus used was both the virus itself, which causes activation of the inflammasome and death of macrophages by pyroptosis (Varela et al. J. Virol. 2016, 88, 12026), as well as an acute stimulus of inflammation generated by a wound in the tail. The migration of fluorescent leukocytes from these transgenic lines was studied by means of microscopy and image analysis.
In a third and final assay, the gene expression of proinflammatory cytokines was determined in Danio rerio (wild type) larvae treated with the AG1 (5 μM), AG3 (5 μM), AG4 (10 μM), AG5 (10 μM) compounds and EAp (10 μg/ml), and subsequently infected with SVCV. The treatments were carried out in a bath for 24 h on fish 1 day post-fertilization (10 fish/well). The experiment was carried out in quadruplicate (n=4). On the second day post-fertilization each fish was injected (2 nl in the duct of Cuvier) 5×10^4 TCID50/mL of SVCV. At 24 h, the expression of IL-6 was determined by qPCR.

New Zealand rabbits [3] = test: Repeated dose toxicity, daily intravenous administration for 7 days (phase II); assay type: in vivo; details: AG-5 in PBS (3 mg/ml), intravenous daily for 7 days
Description: as §1, §2, §3

Wistar rats [4] = test: Single intravenous dose toxicity (phase I, OECD 425); assay type: in vivo; details: AG-5 in PBS (3 mg/ml)
Description: (§5) As part of the preclinical toxicity evaluation, the purpose of this study was to define the maximum repeated dose (MRD) of AG-5, formulated as a solution in PBS (3 mg/ml), in a mammalian rodent species under good laboratory practice (GLP) and to provide data of toxicological interest. To this end, a two-phase study was designed: i) in phase I, the product was administered intravenously in a single dose and following OECD guidelines 425 (OECD Guidelines for the testing of chemicals. Guidelines 425: Acute oral toxicity: up and down procedure. Adopted 3 Oct. 2008), to a total of 12 8-week old female Wistar rats by means of a dose escalation process (incremental factor 3.2), the maximum tolerated dose (MTD) was provisionally determined; ii) in phase II, the animals (a total of 8-week old Wistar rats, 15 males and 15 females) were given a daily intravenous administration for 7 days and the MRD was confirmed.
The initial dose to be used in phase I was selected from the sequence of doses included in OECD guidelines 425, that is, 5.5, 17.5 and 30 mg/kg of body weight. The doses to be tested in phase II were determined based on the results obtained in phase I, selecting 3 doses from the dose interval lower than that in which serious toxic effects would have been observed, that is, 15, 20 and 30 mg/kg/day, with 30 mg/kg being the maximum feasible dose (MFD), in application of the ICH M3(R2) guideline (ICH Harmonized Tripartite Guideline. Non-Clinical Safety Studies for the Conduct of Human Clinical Trials and Marketing Authorization for Pharmaceuticals M3 (R2). Current Step 5 version dated 11 Jun. 2009). The study considered the complete assessment of the symptoms, that is, intensity, time of onset and reversibility, the study of analytical (hematological and biochemical) parameters and the determination of the weight of toxicity target organs, to be fundamental.

[5] = system: migration of neutrophils to the wound; test: Acute inflammatory response produced by a tail wound, neutrophil migration in Tg(Mpx:GFP)i114 larvae, bath treatment; assay type: in vivo, Danio rerio; details: 10 μM by bath, tail cut after 24 hours, neutrophils counted 24 hours after the wound
Description: as §4
In a second assay, the effect of the different compounds on an acute inflammatory response produced by a wound was analyzed. To that end, transgenic fish with fluorescent neutrophils (Tg(Mpx:GFP)i114) were used and their migration to the affected area was analyzed. The AG1 (5 μM), AG3 (5 μM), AG4 (10 μM), AG5 (10 μM) compounds and EAp (10 μg/ml) were administered by bath and after 24 hours the wound was made by cutting the end area of the tail. After 24 hours, neutrophils that migrated to the area of the wound were counted. […] FIG. 3.

[6] = system: cells involved in the inflammatory response; test: Cellular inflammatory response in transgenic larvae (LYZ:Red) after SVCV infection, treatment by microinjection; assay type: in vivo, Danio rerio; details: microinjection 2 nl concomitant with SVCV, 2 hpi, vs control groups
Description: as §4
In a first assay, the cellular response to inflammation was quantified in transgenic Danio rerio larvae (LYZ:Red) after an infection with SVCV treated or untreated (control) with the AG1 compounds (28 μM), AG3 (10 μM), AG4 (10 μM), AG5 (10μM) and EAp (10 μg/ml). The treatments were carried out by microinjection (2 nl in the duct of Cuvier) of the drugs in fish 3 days post-fertilization (5-10 fish/well), concomitantly administering the virus and the different compounds. […] At 2 h post-injection (2 hpi), the number of cells involved in the inflammatory response was determined.

[7] = system: Salmonella typhimurium strains TA98, TA100, TA102, TA1535 and TA1537; test: Ames test; assay type: cell-based
Description: The aim of the study was to characterize the possible genotoxic effect of the assay product AG-5 by means of the Ames test (Ames et al. Proc. Nat. Acad. Sci. USA 1973, 70, 783). To that end, it was determined in a study carried out under GLP whether AG-5 has the ability to produce gene mutations, either by substitution or by mismatch, in Salmonella typhimurium bacteria histidine (His-) auxotrophs.
The study was carried out with strains TA98, TA100, TA102, TA1535 and TA1537 in the presence and in the absence of metabolic activation (S9 mixture). The doses recommended by the OECD guidelines were tested: 100 mg/ml, that is, equivalent to 5000 μg/plate, and […] other lower concentrations (33.3; 11.1; 3.7 and 1.2 mg/ml). […] The results were negative in the 5 bacterial strains (TA98, TA100, TA102, TA1535 and TA1537) both in the presence and in the absence of metabolic activation.

Wistar rats [8] = test: Repeated dose toxicity, daily intravenous administration for 7 days (phase II); assay type: in vivo; details: AG-5 in PBS (3 mg/ml)
Description: as §5
The initial dose to be used in phase I was selected from the sequence of doses included in OECD guidelines 425, that is, 5.5, 17.5 and 30 mg/kg of body weight. […]

SMILES	solubility [1] [µg/mL]	LD50 estimated in rabbits (New Zealand rabbits [2]; intravenous single dose)	MTD level in rabbits in a single dose (New Zealand rabbits [2]; intravenous single dose)	lethality (New Zealand rabbits [2]; intravenous single dose 15 mg/kg, New Zealand rabbits)	associated signs of toxicity (New Zealand rabbits [2]; intravenous single dose 15 mg/kg, rabbits)	IL-6 production (gene expression) in infection by SVCV (IL-6)	changes in analytical parameters, macroscopic alterations in abdominal and thoracic organs, absolute or relative weight of the organs (New Zealand rabbits [3]; 15 mg/kg, rabbit study)	mortality or alterations in the general symptoms (New Zealand rabbits [3]; 15 mg/kg, rabbit study)	MRD (maximum repeated dose) (New Zealand rabbits [3]; rabbits) [mg/kg]	LD50 estimated in rats (Wistar rats [4])	MTD level in rats in a single dose (Wistar rats [4])	signs of toxicity related to the administration (Wistar rats [4]; all doses tested in phase I)	inflammatory response generated by the migration of neutrophils to the wound [5]	cellular inflammatory response induced by the viral infection (number of cells involved in the inflammatory response) ([6]; 10 μM)	precipitation of the product or toxicity (preliminary dose test) ([7]; 100 mg/ml (5000 μg/plate) and lower concentrations (33.3; 11.1; 3.7 and 1.2 mg/ml))	mutagenicity test (gene mutations) ([7]; 5 strains, in the presence and in the absence of metabolic activation (S9 mixture), up to 5000 μg/plate)	MRD (maximum repeated dose) (Wistar rats [8]; intravenous daily for 7 days) [mg/kg]	changes in analytical parameters, macroscopic alterations in abdominal and thoracic organs, absolute or relative weight of the organs (Wistar rats [8]; intravenous daily for 7 days, 15, 20 and 30 mg/kg)	cellular inflammatory response induced by the viral infection (number of cells involved in the inflammatory response) ([6]; 28 μM)
C=C1CC[C@@H]2[C@](C)(CO)[C@H](O)CC[C@@]2(C)[C@@H]1C[C@H](C1=CCOC1=O)S(=O)(=O)O [AG5, 14-deoxy-12(R)-sulfo-andrographolide]	3000 (≈ 7.24 mM)	greater than 15 mg/kg of body weight	15 mg/kg of body weight	did not produce lethality in any animal	No associated signs of toxicity were observed	significantly reduce	No toxicologically relevant changes	did not produce mortality or alterations in the general symptoms	15	greater than 30 mg/kg of body weight	30 mg/kg of body weight	nor did it produce signs of toxicity	significantly decreased	significantly reduce	No precipitation of the product or toxicity was observed	negative; also recorded: did not induce gene mutations	30	No toxicologically relevant changes	–
C=C1CCC2C(C)(CO)C(O)CCC2(C)C1CC=C1C(=O)OCC1O (stereo not shown) [AG1, 3-[2-[-decahydro-6-hydroxy-5-(hydroxy-methyl)-5,8a-dimethyl-2-methylene-1-naphthalenyl]ethylidene]dihydro-4-hydroxy-2(3H)-furanone, reference compound]	–	–	–	–	–	–	–	–	–	–	–	–	–	–	–	–	–	–	significantly reduce
